Test results from ChEMBL document CHEMBL2203238, “Hit to Lead optimization of a novel class of squarate-containing polo-like kinases inhibitors” (Bioorg Med Chem Lett, 2012).

What was measured:
[1] = target: Serine/threonine-protein kinase Chk1 (Homo sapiens, UniProt O14757); experiment: Inhibition of recombinant CHK1 after 1 hr by scintillation counter analysis in presence of gamma-[33P]ATP
[2] = Inhibition of recombinant CK2 after 1 hr by scintillation counter analysis in presence of gamma-[33P]ATP
[3] = target: Serine/threonine-protein kinase pim-1 (Homo sapiens, UniProt P11309); experiment: Inhibition of recombinant PIM1 after 1 hr by scintillation counter analysis in presence of gamma-[33P]ATP
[4] = target: Receptor-type tyrosine-protein kinase FLT3 (Homo sapiens, UniProt P36888); experiment: Inhibition of recombinant FLT3 after 1 hr by scintillation counter analysis in presence of gamma-[33P]ATP
[5] = target: Mitogen-activated protein kinase 9 (Homo sapiens, UniProt P45984); experiment: Inhibition of recombinant JNK2A2 after 1 hr by scintillation counter analysis in presence of gamma-[33P]ATP
[6] = target: Mitogen-activated protein kinase 13 (Homo sapiens, UniProt O15264); experiment: Inhibition of recombinant P38delta after 1 hr by scintillation counter analysis in presence of gamma-[33P]ATP
[7] = Inhibition of recombinant PKA after 1 hr by scintillation counter analysis in presence of gamma-[33P]ATP
[8] = target: Vascular endothelial growth factor receptor 2 (Homo sapiens, UniProt P35968); experiment: Inhibition of recombinant KDR after 1 hr by scintillation counter analysis in presence of gamma-[33P]ATP
[9] = target: Receptor tyrosine-protein kinase erbB-4 (Homo sapiens, UniProt Q15303); experiment: Inhibition of recombinant ERBB4 after 1 hr by scintillation counter analysis in presence of gamma-[33P]ATP
[10] = target: Serine/threonine-protein kinase pim-2 (Homo sapiens, UniProt Q9P1W9); experiment: Inhibition of recombinant PIM2 after 1 hr by scintillation counter analysis in presence of gamma-[33P]ATP
[11] = target: Protein kinase C delta type (Homo sapiens, UniProt Q05655); experiment: Inhibition of recombinant PKCdelta after 1 hr by scintillation counter analysis in presence of gamma-[33P]ATP
[12] = target: Macrophage colony-stimulating factor 1 receptor (Homo sapiens, UniProt P07333); experiment: Inhibition of recombinant CSF1R after 1 hr by scintillation counter analysis in presence of gamma-[33P]ATP
[13] = target: Tyrosine-protein kinase JAK2 (Homo sapiens, UniProt O60674); experiment: Inhibition of recombinant JAK2 after 1 hr by scintillation counter analysis in presence of gamma-[33P]ATP
Mus musculus = experiment: Toxicity in SCID mouse xenografted with human MIAPaCa2 cells assessed as body weight loss at 100 mg/kg/day, po measured on day 26 to day 44; type: organism-based, MIA PaCa-2; design: route oral; conditions: in vivo
[14] = target: Rho-associated protein kinase 1 (Homo sapiens, UniProt Q13464); experiment: Inhibition of recombinant ROCK1 after 1 hr by scintillation counter analysis in presence of gamma-[33P]ATP
[15] = target: Mitogen-activated protein kinase 8 (Homo sapiens, UniProt P45983); experiment: Inhibition of recombinant JNK1A1 after 1 hr by scintillation counter analysis in presence of gamma-[33P]ATP
MIA PaCa-2 = experiment: Antitumor activity against human MIAPaCa2 cells xenografted in SCID mouse assessed as tumor growth inhibition at 100 mg/kg/day, po measured on day 35 relative to vehicle-treated control; type: functional; conditions: MIA PaCa-2, 840 h, read-out: TGI
[16] = Volume of distribution in mouse; type: ADME, organism-based; conditions: in vivo
[17] = target: Serine/threonine-protein kinase D2 (Homo sapiens, UniProt Q9BZL6); experiment: Inhibition of recombinant PKD2 after 1 hr by scintillation counter analysis in presence of gamma-[33P]ATP
[18] = target: Serine/threonine-protein kinase PLK3 (Homo sapiens, UniProt Q9H4B4); experiment: Inhibition of recombinant PLK3 after 1 hr by scintillation counter analysis in presence of gamma-[33P]ATP
[19] = target: Fibroblast growth factor receptor 3 (Homo sapiens, UniProt P22607); experiment: Inhibition of recombinant FGFR3 after 1 hr by scintillation counter analysis in presence of gamma-[33P]ATP
[20] = target: Tyrosine-protein kinase ITK/TSK (Homo sapiens, UniProt Q08881); experiment: Inhibition of recombinant ITK after 1 hr by scintillation counter analysis in presence of gamma-[33P]ATP
[21] = target: Serine/threonine-protein kinase 3 (Homo sapiens, UniProt Q13188); experiment: Inhibition of recombinant MST2 after 1 hr by scintillation counter analysis in presence of gamma-[33P]ATP
[22] = target: Glycogen synthase kinase-3 beta (Homo sapiens, UniProt P49841); experiment: Inhibition of recombinant GSK3B after 1 hr by scintillation counter analysis in presence of gamma-[33P]ATP
[23] = Cmax in mouse at 50 mg/kg, po measured at 1 hr; type: ADME, organism-based; design: dose 50 mg/kg, route oral; conditions: in vivo
[24] = target: Serine/threonine-protein kinase Sgk1 (Homo sapiens, UniProt O00141); experiment: Inhibition of recombinant SGK after 1 hr by scintillation counter analysis in presence of gamma-[33P]ATP
[25] = target: RAC-gamma serine/threonine-protein kinase (Homo sapiens, UniProt Q9Y243); experiment: Inhibition of recombinant AKT3 after 1 hr by scintillation counter analysis in presence of gamma-[33P]ATP
[26] = target: Cell division control protein 42 homolog (Homo sapiens, UniProt P60953); experiment: Inhibition of recombinant CDC42 after 1 hr by scintillation counter analysis in presence of gamma-[33P]ATP
[27] = target: Tyrosine-protein kinase Blk (Homo sapiens, UniProt P51451); experiment: Inhibition of recombinant BLK after 1 hr by scintillation counter analysis in presence of gamma-[33P]ATP

Cell division control protein 42 homolog, sequence (P60953 whole entry): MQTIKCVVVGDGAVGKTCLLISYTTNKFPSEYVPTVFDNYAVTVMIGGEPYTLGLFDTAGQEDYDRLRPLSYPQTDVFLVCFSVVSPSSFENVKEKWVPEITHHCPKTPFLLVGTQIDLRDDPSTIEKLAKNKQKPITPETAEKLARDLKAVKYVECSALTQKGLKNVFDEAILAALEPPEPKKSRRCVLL
Protein kinase C delta type, sequence (Q05655 whole entry): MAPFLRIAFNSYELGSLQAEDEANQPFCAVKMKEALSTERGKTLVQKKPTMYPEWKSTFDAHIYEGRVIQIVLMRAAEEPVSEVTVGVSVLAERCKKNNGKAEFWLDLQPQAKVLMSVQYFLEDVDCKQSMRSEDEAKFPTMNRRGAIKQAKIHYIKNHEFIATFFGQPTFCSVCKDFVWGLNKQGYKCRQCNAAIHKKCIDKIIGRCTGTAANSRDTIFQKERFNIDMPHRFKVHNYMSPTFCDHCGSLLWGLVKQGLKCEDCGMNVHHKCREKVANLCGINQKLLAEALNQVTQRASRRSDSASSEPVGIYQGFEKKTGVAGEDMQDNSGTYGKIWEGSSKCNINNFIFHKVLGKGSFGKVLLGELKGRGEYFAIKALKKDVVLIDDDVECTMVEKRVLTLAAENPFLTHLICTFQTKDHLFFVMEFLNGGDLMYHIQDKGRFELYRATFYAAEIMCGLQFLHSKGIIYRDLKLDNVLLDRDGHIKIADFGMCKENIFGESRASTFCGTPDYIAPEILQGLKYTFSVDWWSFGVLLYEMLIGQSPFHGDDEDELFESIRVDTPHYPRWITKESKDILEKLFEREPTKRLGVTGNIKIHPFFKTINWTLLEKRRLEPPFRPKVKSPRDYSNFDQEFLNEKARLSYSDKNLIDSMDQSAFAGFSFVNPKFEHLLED
Serine/threonine-protein kinase PLK3, sequence (Q9H4B4 whole entry): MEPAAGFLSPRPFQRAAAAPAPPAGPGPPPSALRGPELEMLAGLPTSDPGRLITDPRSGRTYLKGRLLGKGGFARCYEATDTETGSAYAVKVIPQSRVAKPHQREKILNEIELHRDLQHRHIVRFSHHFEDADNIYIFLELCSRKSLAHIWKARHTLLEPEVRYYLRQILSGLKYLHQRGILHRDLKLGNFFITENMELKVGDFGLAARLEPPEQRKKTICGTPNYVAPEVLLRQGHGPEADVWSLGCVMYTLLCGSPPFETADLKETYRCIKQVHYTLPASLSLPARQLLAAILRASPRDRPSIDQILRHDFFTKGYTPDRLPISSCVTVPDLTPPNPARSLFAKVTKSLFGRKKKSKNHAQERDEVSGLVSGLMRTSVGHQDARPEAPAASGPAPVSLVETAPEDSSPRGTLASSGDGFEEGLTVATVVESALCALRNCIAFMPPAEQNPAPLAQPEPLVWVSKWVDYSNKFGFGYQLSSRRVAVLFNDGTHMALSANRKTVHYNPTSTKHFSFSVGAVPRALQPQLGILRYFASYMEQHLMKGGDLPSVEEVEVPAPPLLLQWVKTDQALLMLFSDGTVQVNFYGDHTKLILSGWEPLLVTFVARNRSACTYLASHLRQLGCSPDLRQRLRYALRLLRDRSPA
Serine/threonine-protein kinase Sgk1, sequence (O00141 whole entry): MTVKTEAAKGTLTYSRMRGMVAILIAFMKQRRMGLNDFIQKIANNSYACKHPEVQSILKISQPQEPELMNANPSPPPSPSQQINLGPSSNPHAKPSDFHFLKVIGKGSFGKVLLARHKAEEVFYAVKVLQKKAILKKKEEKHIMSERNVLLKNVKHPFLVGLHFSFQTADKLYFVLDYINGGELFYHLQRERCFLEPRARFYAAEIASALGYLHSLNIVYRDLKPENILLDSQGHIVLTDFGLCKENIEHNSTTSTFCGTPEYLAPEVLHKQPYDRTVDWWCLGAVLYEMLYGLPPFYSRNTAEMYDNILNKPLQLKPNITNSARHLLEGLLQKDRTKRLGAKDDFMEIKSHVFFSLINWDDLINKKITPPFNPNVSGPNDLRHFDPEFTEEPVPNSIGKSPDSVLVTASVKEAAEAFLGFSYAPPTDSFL
Vascular endothelial growth factor receptor 2, sequence (P35968 whole entry): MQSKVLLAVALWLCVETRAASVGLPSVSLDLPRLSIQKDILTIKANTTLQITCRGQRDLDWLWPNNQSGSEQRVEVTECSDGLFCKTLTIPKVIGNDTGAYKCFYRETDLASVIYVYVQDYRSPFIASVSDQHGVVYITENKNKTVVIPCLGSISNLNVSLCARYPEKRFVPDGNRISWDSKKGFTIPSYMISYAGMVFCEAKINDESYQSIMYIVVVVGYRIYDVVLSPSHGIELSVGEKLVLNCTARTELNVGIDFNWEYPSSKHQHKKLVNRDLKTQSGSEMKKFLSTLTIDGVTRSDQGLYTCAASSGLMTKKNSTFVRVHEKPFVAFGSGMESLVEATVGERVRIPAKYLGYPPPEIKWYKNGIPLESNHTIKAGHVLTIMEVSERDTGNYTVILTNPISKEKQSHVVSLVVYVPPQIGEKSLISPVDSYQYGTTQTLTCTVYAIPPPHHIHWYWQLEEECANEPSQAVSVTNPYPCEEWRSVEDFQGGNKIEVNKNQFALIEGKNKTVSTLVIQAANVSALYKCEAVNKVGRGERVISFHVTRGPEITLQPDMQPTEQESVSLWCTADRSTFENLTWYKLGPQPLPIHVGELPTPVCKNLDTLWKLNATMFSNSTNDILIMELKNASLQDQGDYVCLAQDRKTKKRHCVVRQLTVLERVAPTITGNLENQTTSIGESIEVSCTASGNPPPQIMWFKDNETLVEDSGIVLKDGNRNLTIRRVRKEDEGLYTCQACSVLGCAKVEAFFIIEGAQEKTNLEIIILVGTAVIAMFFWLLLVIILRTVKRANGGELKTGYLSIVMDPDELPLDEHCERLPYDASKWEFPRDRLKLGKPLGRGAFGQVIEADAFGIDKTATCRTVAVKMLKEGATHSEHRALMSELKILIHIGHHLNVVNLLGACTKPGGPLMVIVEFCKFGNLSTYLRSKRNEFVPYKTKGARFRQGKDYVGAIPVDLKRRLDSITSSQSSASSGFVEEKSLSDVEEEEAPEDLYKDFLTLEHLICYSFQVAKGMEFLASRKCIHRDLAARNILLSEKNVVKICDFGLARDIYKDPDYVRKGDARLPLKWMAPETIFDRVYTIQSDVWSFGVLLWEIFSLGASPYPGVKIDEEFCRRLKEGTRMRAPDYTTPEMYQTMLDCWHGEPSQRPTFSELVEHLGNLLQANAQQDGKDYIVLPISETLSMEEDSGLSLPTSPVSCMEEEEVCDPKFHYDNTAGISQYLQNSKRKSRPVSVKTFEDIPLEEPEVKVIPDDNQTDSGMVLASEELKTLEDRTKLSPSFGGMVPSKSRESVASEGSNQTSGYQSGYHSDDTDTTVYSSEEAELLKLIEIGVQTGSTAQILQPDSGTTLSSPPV
RAC-gamma serine/threonine-protein kinase, sequence (Q9Y243 whole entry): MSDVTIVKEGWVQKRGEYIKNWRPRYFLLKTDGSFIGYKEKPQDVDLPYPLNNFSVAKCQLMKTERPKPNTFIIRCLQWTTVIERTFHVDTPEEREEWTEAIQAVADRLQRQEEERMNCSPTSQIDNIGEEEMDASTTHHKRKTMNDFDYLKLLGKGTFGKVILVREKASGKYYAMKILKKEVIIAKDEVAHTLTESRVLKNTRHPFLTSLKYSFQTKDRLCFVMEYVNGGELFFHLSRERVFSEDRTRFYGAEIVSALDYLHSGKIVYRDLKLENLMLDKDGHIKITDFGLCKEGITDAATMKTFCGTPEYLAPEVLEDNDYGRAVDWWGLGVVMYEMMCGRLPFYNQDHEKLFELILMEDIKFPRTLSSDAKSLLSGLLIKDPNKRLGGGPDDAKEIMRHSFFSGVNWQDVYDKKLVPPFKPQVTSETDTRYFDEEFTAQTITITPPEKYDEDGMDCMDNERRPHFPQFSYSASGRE
Mitogen-activated protein kinase 13, sequence (O15264 whole entry): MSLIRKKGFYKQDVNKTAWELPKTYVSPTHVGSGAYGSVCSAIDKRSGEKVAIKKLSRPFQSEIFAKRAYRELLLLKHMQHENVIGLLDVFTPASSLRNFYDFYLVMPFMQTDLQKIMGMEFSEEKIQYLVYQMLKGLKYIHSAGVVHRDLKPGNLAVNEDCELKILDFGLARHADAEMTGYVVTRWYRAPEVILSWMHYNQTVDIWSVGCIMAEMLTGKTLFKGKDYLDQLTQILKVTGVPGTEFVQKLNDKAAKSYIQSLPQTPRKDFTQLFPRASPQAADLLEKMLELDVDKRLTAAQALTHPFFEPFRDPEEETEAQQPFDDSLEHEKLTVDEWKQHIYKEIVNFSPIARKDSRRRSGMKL
Serine/threonine-protein kinase pim-1, sequence (P11309 whole entry): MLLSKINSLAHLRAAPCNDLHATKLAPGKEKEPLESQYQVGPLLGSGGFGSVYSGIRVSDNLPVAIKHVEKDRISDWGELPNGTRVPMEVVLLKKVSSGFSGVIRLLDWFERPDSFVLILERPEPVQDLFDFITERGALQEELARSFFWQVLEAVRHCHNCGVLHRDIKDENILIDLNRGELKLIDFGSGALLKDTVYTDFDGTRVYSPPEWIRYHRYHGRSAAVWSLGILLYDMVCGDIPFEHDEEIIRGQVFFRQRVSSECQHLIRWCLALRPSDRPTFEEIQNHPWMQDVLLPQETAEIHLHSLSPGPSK
Serine/threonine-protein kinase Chk1, sequence (O14757 whole entry): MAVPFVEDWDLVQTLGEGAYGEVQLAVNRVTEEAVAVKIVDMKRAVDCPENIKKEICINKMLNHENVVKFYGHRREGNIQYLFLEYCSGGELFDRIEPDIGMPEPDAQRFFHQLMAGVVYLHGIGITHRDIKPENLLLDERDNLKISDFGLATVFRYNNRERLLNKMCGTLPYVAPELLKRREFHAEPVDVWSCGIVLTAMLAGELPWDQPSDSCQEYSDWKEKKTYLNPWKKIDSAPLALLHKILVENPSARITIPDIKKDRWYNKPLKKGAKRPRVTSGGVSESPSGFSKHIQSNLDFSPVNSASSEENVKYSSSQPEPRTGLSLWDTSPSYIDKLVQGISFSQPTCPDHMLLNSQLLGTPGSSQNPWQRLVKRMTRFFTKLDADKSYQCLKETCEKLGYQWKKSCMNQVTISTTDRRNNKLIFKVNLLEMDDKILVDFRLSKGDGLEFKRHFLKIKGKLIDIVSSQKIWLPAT

- Ki [1]: 167 nM
- Ki [2]: 276 nM
- Ki [3]: 1600 nM
- Ki [4]: 494 nM
- Ki [5]: 262 nM
- Ki [6]: 5900 nM
- Ki [7]: > 7500 nM
- Ki [8]: 98 nM
- Ki [9]: > 3700 nM
- Ki [10]: > 1400 nM
- Ki [11]: 7.9 nM
- Ki [12]: 2100 nM
- Ki [13]: 920 nM
- Ki [14]: 220 nM
- Ki [15]: > 3000 nM
- Vd [16]: 3.7 L/kg
- Ki [17]: 175 nM
- Ki [18]: 2 nM
- Ki [19]: 1400 nM
- Ki [20]: > 1500 nM
- Ki [21]: 2900 nM
- Ki [22]: 102 nM
- Cmax [23]: 5.4 µM
- Ki [24]: 260 nM
- Ki [25]: > 9000 nM
- Ki [26]: > 4400 nM
- Ki [27]: > 1400 nM
SMILES: CC(C)(C)Nc1c(Nc2ccnc(Nc3ccc(-c4ccncc4)cc3)n2)c(=O)c1=O
- Activity (Mus musculus): Non-toxic
- inhibition in vivo at 100 mg/kg/day (MIA PaCa-2): 38%
